# Laboratory results as given in patent US6656509B1, “Combination of selenium-containing compounds with cytostatics” (Biosyn Arzneimittel GmbH, priority 1998, dated 2003).
# Columns and labels:
# [1] = system: pancreatic cancer xenograft PAXF 736; experiment: clonogenic assay, single agents and combination studies; assay type: cell-based, human
# Procedure: (§1) The cell mixture was passed through sieves of 200 μm and 50 μm mesh size and washed thereafter twice with PBS. The percentage of viable cells was determined in a Neubauer counting chamber using trypan blue exclusion.
# (§2) 8×10^3 to 1,6×10^4 cells were added to 0.2 ml of the same culture medium together with 0.4% agar and placed in already coated 24-multiwell dishes. Test substances were applied by continuous exposure (drug overlay) in 0.2 ml medium. Every dish included six control wells containing the vehicle- and drug-treated groups in triplicate at six concentrations.
# (§3) Cultures were incubated at 37° and 7% CO2 in a humidified atmosphere for 5 to 15 days (depending on the doubling time of the tumor stem cells) and monitored for colony growth using an inverted microscope. Within this period, in vitro tumor growth led to the formation of colonies with a diameter of ≧50 μm. At the time of maximum colony formation counts were performed with an automatic image analysis system (OMNICOM Fas IV, Biosys GmbH). […] Drug effects were expressed in terms of the percentage of surviving cells, obtained by comparison of the mean number of colonies in the treated plates with the mean colony count of the untreated controls (test-versus-control-group value, T/C=colony countTreated Group*100/colony countControl Group).
# (§4) Coefficient of variation in the control group ≦50%. IC50 and IC70 values were determined by plotting compound concentration versus cell survival rate. Mean IC50 and IC70 values were calculated according to the formula: [formula]
# (§5) with x=specific tumor xenograft and n=total number of tumor xenografts studied. If an IC50 or IC70 value could not be determined within the examined dose range, the lowest or highest concentration studied was used for the calculation.
# (§6) Each experiment included the chemotherapeutic agents in 6 concentrations, selenium in 2 concentrations (3 and 30 μM), and the combination of all doses with selenium at 3 and 30 μM. All compounds and combinations were studied in triplicates. […] Each experiment was performed twice.
# (§7) T/Cexpectd(A+B)=T/C(A)×T/C(B)/100
# (§8) For a zero-interactive drug combination (additivity of drug effects) T/Cexpected(A+B)[…]T/Cobserved(A+B). A drug combination is synergistic if T/Cobserved(A+B) is statistically significant[…]T/Cexpected(A+B). Statistical significance was determined by the T-test.
# [2] = system: pancreatic cancer xenograft PAXF 546; experiment: as above; assay type: cell-based, human
# Procedure: as §1, §2, §3, §4, §5, §6, §7, §8
smiles,measurement,setting,value
O=[Se]([O-])[O-].[Na+].[Na+] [sodium selenite],Sodium selenite T/C in %,"[1]; 3.0 μM alone, X265, X290",81 ± 12%
same,Sodium selenite T/C in %,"[1]; 30.0 μM alone, X265",43 ± 8%
same,Sodium selenite T/C in %,"[1]; 30.0 μM alone, X290",5 ± 2%
same,Sodium selenite T/C in %,"[1]; 30.0 μM alone, X290, listed as selenium",5%
same,Test/control (%) at drug concentration [μM] 1.,"[1]; PAXF 736/17, X184AM",88%
same,Test/control (%) at drug concentration [μM] 10.,"[1]; PAXF 736/17, X184AM",90%
same,Test/control (%) at drug concentration [μM] 100.,"[1]; PAXF 736/17, X184AM",4%
same,Test/control (%) at drug concentration [μM] .001,"[1]; PAXF 736/17, X184AM",87%
same,Test/control (%) at drug concentration [μM] .01,"[1]; PAXF 736/17, X184AM",77%
same,Test/control (%) at drug concentration [μM] .1,"[1]; PAXF 736/17, X184AM",94%
same,Test/control (%) class at drug concentration [μM] 1.,"[1]; PAXF 736/17, X184AM",− (− (T/C ≧ 50%))
same,Test/control (%) class at drug concentration [μM] 10.,"[1]; PAXF 736/17, X184AM",− (− (T/C ≧ 50%))
same,Test/control (%) class at drug concentration [μM] 100.,"[1]; PAXF 736/17, X184AM",+++ (+++ (T/C ≦ 10%))
same,Test/control (%) class at drug concentration [μM] .001,"[1]; PAXF 736/17, X184AM",− (− (T/C ≧ 50%))
same,Test/control (%) class at drug concentration [μM] .01,"[1]; PAXF 736/17, X184AM",− (− (T/C ≧ 50%))
same,Test/control (%) class at drug concentration [μM] .1,"[1]; PAXF 736/17, X184AM",− (− (T/C ≧ 50%))
same,Sodium selenite T/C in %,"[2]; 3.0 μM alone, X261, X295",91 ± 8%
same,Sodium selenite T/C in %,"[2]; 30.0 μM alone, X261",80 ± 13%
same,Sodium selenite T/C in %,"[2]; 30.0 μM alone, X295",49 ± 6%
same,Test/control (%) at drug concentration [μM] 1.,"[2]; PAXF 546/2, *(2)",104%
same,Test/control (%) at drug concentration [μM] 10.,"[2]; PAXF 546/2, *(2)",88%
same,Test/control (%) at drug concentration [μM] 100.,"[2]; PAXF 546/2, *(2)",2%
same,Test/control (%) at drug concentration [μM] .001,"[2]; PAXF 546/2, *(2)",82%
same,Test/control (%) at drug concentration [μM] .01,"[2]; PAXF 546/2, *(2)",112%
same,Test/control (%) at drug concentration [μM] .1,"[2]; PAXF 546/2, *(2)",100%
same,Test/control (%) class at drug concentration [μM] 1.,"[2]; PAXF 546/2, *(2)",− (− (T/C ≧ 50%))
same,Test/control (%) class at drug concentration [μM] 10.,"[2]; PAXF 546/2, *(2)",− (− (T/C ≧ 50%))
same,Test/control (%) class at drug concentration [μM] 100.,"[2]; PAXF 546/2, *(2)",+++ (+++ (T/C ≦ 10%))
same,Test/control (%) class at drug concentration [μM] .001,"[2]; PAXF 546/2, *(2)",− (− (T/C ≧ 50%))
same,Test/control (%) class at drug concentration [μM] .01,"[2]; PAXF 546/2, *(2)",− (− (T/C ≧ 50%))
same,Test/control (%) class at drug concentration [μM] .1,"[2]; PAXF 546/2, *(2)",− (− (T/C ≧ 50%))
